Test results from patent US11084842B2 (SUNSHINE LAKE PHARMA CO., LTD., priority 2018, dated 2021).

Columns and labels:
blood glucose of SD rats = assay: Oral glucose tolerance test in SD rats (Test Method 2); format: in vivo; settings: glucose 4.0 g/kg, decline rate of AUCGlu 0-60min
Experimental: The following methods were used to evaluate the effects of the compound of the invention on improving oral glucose tolerance and glycosuria excretion.
The weights and the fasting blood glucose levels of male SD rats were measured after an overnight 15-hours fast. The rats were grouped by their weights and fasting plasma glucose levels. […] After 30 minutes, the blood glucose level (i.e., zero point blood glucose) of each group was measured, and then each group was immediately administered glucose (4.0 g/kg) once by gavage. The blood was drawn from the caudal vein of the […] at 15, 30 and 60 minutes after glucose administration and the blood glucose levels were measured continuously on blood-glucose meter. The decline rate of the area under the blood sugar curve within 60 minutes (AUCGlu 0-60min) after sugar loading was calculated.

human SGLT1 = target: T1, human SGLT1 (Homo sapiens, UniProt P13866); assay: Test of inhibitory activity on SGLT1 ([14C]-AMG uptake in CHO cells expressing human SGLT1); format: cell-based; settings: CHO cells expressing human SGLT1, 0.5 μM [14C]-AMG, 37° C., 1 hour
T1 construct: expressed in transfected cells; host or cells: CHO cells (FIP-in CHO; mock-transfected cells as control)
T1 sequence (P13866 1-664): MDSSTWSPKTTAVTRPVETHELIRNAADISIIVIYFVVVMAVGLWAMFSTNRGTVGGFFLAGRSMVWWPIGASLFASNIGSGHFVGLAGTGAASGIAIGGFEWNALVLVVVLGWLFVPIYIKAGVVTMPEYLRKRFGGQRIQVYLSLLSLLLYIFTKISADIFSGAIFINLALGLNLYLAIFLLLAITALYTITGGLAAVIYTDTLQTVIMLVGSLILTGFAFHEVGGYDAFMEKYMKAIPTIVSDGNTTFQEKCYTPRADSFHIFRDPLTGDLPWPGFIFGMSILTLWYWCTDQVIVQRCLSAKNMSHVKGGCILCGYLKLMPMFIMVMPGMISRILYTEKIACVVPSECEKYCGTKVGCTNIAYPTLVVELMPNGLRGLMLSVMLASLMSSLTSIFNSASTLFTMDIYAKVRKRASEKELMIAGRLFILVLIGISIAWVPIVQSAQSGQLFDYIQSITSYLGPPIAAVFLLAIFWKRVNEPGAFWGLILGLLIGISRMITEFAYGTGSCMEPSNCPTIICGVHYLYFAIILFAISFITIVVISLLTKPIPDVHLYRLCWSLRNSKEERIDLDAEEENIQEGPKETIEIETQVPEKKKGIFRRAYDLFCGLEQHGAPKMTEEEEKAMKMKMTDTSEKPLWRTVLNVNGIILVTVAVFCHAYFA
Experimental: The following methods can be used to determine the inhibitory activity of the compound of the invention on SGLT-1.
Mock-transfected FIP-in CHO cells (3×10^4 cells) and expressing human SGLT1 CHO cells were seeded into 96-well plates respectively. The cells were incubated for 12 hours. Each well of the 96-well plate was washed with 150 μL of sodium-free buffer once. To each well was added 50 μL of sodium-containing buffer containing test compounds having different concentrations and 0.5 μM [^14C]-AMG. The incubation mixture was incubated at 37° C. for 1 hour. To each well was added 150 μL of precooled sodium-free buffer to terminate the reaction. The cell pellet was washed with sodiumfree buffer three times and the residual liquid in well was removed. To each well was added 20 μL of precooled 100 mM NaOH. The 96-well plate was vibrated at 900 rpm for 5 minutes. Scintillation fluid (80 μL) was added to each well which was then vibrated at 600 rpm for 5 minutes. The amount of ^14C-AMG was quantitatively detected using liquid scintillation.

IC50 (human SGLT1) [nM]	SMILES	hypoglycemic rate (%) (blood glucose of SD rats; dosage 1 mg/kg by gavage)	hypoglycemic rate (%) (blood glucose of SD rats; dosage 0.1 mg/kg by gavage)
–	Cc1ccc([C@]23OC[C@](C(C)(C)O)(O2)[C@@H](O)[C@H](O)[C@H]3O)cc1Cc1ccc(CCCC(=O)N[C@@H](C)C(=O)NCCN(C)C)cc1 [Example 6, N-[(1S)-2-(2-dimethylaminoethylamino)-1-methyl-2-oxo-ethyl]-4-[4-[[2-methyl-5-[(1S,2S,3S,4R,5S)-2,3,4-trihydroxy-1-(1-hydroxy-1-methyl-ethyl)-6,8-dioxabicyclo[3.2.1]octane-5-yl]phenyl]methyl]phenyl]butanamide]	33.19	–
2.9	Cc1ccc([C@]23OC[C@](C)(O2)[C@@H](O)[C@H](O)[C@H]3O)cc1Cc1ccc(CCCC(=O)NC(C)(C)C(=O)NCCN(C)C)cc1 [Example 13]	–	–
0.6	Cc1ccc([C@]23OC[C@](C)(O2)[C@@H](O)[C@H](O)[C@H]3O)cc1Cc1ccc(OCCCC(=O)NC2(C(=O)NCCN(C)C)CCCCC2)cc1 [Example 21, N-(2-dimethylaminoethyl)-1-[4-[4-[[2-methyl-5-[(1S,2S,3S,4R,5S)-2,3,4-trihydroxy-1-methyl-6,8-dioxabicyclo[3.2.1]octane-5-yl]phenyl]methyl]phenoxy]butanamido]cyclohexylcarboxamide]	–	–
0.57	CC[C@@]12CO[C@@](c3ccc(C)c(Cc4ccc(CCCC(=O)NC(C)(C)C(=O)NCCN(C)C)cc4)c3)(O1)[C@H](O)[C@@H](O)[C@@H]2O [Example 14, N-(2-dimethylaminoethyl)-2-[4-[4-[[5-[(1S,2S,3S,4R,5S)-1-ethyl-2,3,4-trihydroxy-6,8-dioxabicyclo[3.2.1]octane-5-yl]-2-methyl-phenyl]methyl]phenyl]butanamido]-2-methyl-propionamide]	–	–
0.24	Cc1ccc([C@]23OC[C@](C(C)(C)O)(O2)[C@@H](O)[C@H](O)[C@H]3O)cc1Cc1ccc(CCCC(=O)NC2(C(=O)NCCN(C)C)CCCC2)cc1 [Example 8, N-(2-dimethylaminoethyl)-1-[4-[4-[[2-methyl-5-[(1S,2S,3S,4R,5S)-2,3,4-trihydroxy-1-(1-hydroxy-1-methyl-ethyl)-6,8-dioxabicyclo[3.2.1]octane-5-yl]phenyl]methyl]phenyl]butylamide]cyclopentyl formamide]	–	–
1.51	CCC(CC)(NC(=O)CCCc1ccc(Cc2cc([C@]34OC[C@](C(C)(C)O)(O3)[C@@H](O)[C@H](O)[C@H]4O)ccc2C)cc1)C(=O)NCCN(C)C [Example 12, N-(2-dimethylaminoethyl)-2-ethyl-2-[4-[4-[[2-methyl-5-[(1S,2S,3S,4R,5S)-2,3,4-trihydroxy-1-(1-hydroxy-1-methyl-ethyl)-6,8-dioxabicyclo[3.2.1]octane-5-yl]phenyl]methyl]phenyl]butanamido]butanamide]	–	–
0.47	Cc1ccc([C@]23OC[C@](C(C)(C)O)(O2)[C@@H](O)[C@H](O)[C@H]3O)cc1Cc1ccc(CCCC(=O)NC2(C(=O)NCCN(C)C)CCCCC2)cc1 [Example 16, N-(2-dimethylaminoethyl)-1-[4-[4-[[2-methyl-5-[(1S,2S,3S,4R,5S)-2,3,4-trihydroxy-1-(1-hydroxy-1-methyl-ethyl)-6,8-dioxabicyclo[3.2.1]octane-5-yl]phenyl]methyl]phenyl]butylamide]cyclohexyl carboxamide]	–	30.93
1.61	Cc1ccc([C@]23OC[C@](C(C)(C)O)(O2)[C@@H](O)[C@H](O)[C@H]3O)cc1Cc1ccc(CCCC(=O)N[C@H](C(=O)NCCN(C)C)C2CC2)cc1 [Example 10, N-[(1S)-1-cyclopropyl-2-(2-dimethylaminoethylamino)-2-oxo-ethyl]-4-[4-[[2-methyl-5-[(1S,2S,3S,4R,5S)-2,3,4-trihydroxy-1-(1-hydroxy-1-methyl-ethyl)-6,8-dioxabicyclo[3.2.1]octane-5-yl]phenyl]methyl]phenyl]butanamide]	–	–
0.43	Cc1ccc([C@]23OC[C@](C)(O2)[C@@H](O)[C@H](O)[C@H]3O)cc1Cc1ccc(CCCC(=O)NC2(C(=O)NCCN(C)C)CCCCC2)cc1 [Example 18]	–	–
0.55	Cc1ccc([C@]23OC[C@](C)(O2)[C@@H](O)[C@H](O)[C@H]3O)cc1Cc1ccc(OCCCC(=O)NC2(C(=O)NCCN(C)C)CCC2)cc1 [Example 20, N-(2-dimethylaminoethyl)-1-[4-[4-[[2-methyl-5-[(1S,2S,3S,4R,5S)-2,3,4-trihydroxy-1-methyl-6,8-dioxabicyclo[3.2.1]octane-5-yl]phenyl]methyl]phenoxy]butanamido]cyclobutyl carboxamide]	–	–
0.23	Cc1ccc([C@]23OC[C@](C(C)(C)O)(O2)[C@@H](O)[C@H](O)[C@H]3O)cc1Cc1ccc(CCCC(=O)NC2(C(=O)NCCN(C)C)CCC2)cc1 [Example 11]	–	–
–	Cc1ccc([C@]23OC[C@](C(C)(C)O)(O2)[C@@H](O)[C@H](O)[C@H]3O)cc1Cc1ccc(CCCC(=O)NC(C)(C)C(=O)NCCN(C)C)cc1 [Example 2]	31.64	–
0.4	Cc1ccc([C@]23OC[C@](C)(O2)[C@@H](O)[C@H](O)[C@H]3O)cc1Cc1ccc(CCCC(=O)NC2(C(=O)NCCN(C)C)CCC2)cc1 [Example 17, N-(2-dimethylaminoethyl)-1-[4-[4-[[2-methyl-5-[(1S,2S,3S,4R,5S)-2,3,4-trihydroxy-1-methyl-6,8-dioxabicyclo[3.2.1]octane-5-yl]phenyl]methyl]phenyl]butanamido]cyclobutyl carboxamide]	–	–
